SMILES strings stand for the structures.

The subject of the first assay is r(CUG)12-MBNL1 complex. The experiment in a line: Inhibition of the r(CUG)12-MBNL1 complex measured by TR-FRET. The conditions noted are these: Table L; 80 nM RNA, 60 nM MBNL1-His6. The class given is biochemical.
For the compound `N=C(N)c1ccc2nc(-c3ccc(-c4nc5ccc(C(=N)N)cc5[nH]4)cc3)[nH]c2c1` [Compound 26, 2,2′-(1,4-phenylene)bis(1H-benzo[d]imidazole-6-carboximidamide) acetate], the IC50 was 6.6 µM.
Compound `CC(C)(C)OC(=O)N1CCN(CCNC(=O)c2ccc3nc(-c4ccc(-c5nc6ccc(C(=O)NCCN7CCCCC7)cc6[nH]5)cc4)[nH]c3c2)CC1` [Compound 125] gave a concentration for half-maximal inhibition (IC50) of 25.6 µM.
Same read-out and setting: for `CC(=O)Nc1ccc2nc(-c3ccc(-c4nc5ccc(Nc6ncccn6)cc5[nH]4)cc3)[nH]c2c1` [Compound 7, N-(2-(4-(5-(pyrimidin-2-ylamino)-1H-benzo[d]imidazol-2-yl)phenyl)-1H-benzo[d]imidazol-5-yl)acetamide] the value was 80 µM; for `CC(C)(C)OC(=O)N1CCN(CCNC(=O)c2ccc3nc(-c4ccc(-c5nc6ccc(C(=O)NCCN7CCN(C(=O)OC(C)(C)C)CC7)cc6[nH]5)cc4)[nH]c3c2)CC1` [Compound 46, di-tert-butyl 4,4′-(((2,2′-(1,4-phenylene)bis(1H-benzo[d]imidazole-6,6′-carbonyl))bis(azanediyl))bis(ethane-2,1-diyl))bis(piperazine-1-carboxylate)], greater than 200 µM.
Same read-out and setting: for `CC(=O)NCCNC(=O)c1ccc2nc(-c3ccc(-c4nc5ccc(C(=O)NCCNC(C)=O)cc5[nH]4)cc3)[nH]c2c1` [Compound 51, 2,2′-(1,4-phenylene)bis(N-(2-acetamidoethyl)-1H-benzo[d]imidazole-6-carboxamide)] the value was greater than 200 µM.
The same measure, in the same setting: under `Nc1ccc2nc(-c3ccc(-c4ccc(-c5nc6ccc(N)cc6[nH]5)cc4)cc3)[nH]c2c1` [Compound 80] stands 31.3 µM; under `CN(C)CCNC(=O)Nc1ccc2nc(-c3ccc(-c4nc5ccc(NC(=O)NCCN(C)C)cc5[nH]4)cc3)[nH]c2c1` [Compound 64], 27 µM; under `CC(=O)Nc1ccc2nc(-c3ccc(-c4nc5ccc(NC(C)=O)cc5[nH]4)cc3)[nH]c2c1` [Compound 6, N,N′-(2,2′-(1,4-phenylene)bis(1H-benzo[d]imidazole-5,2-diyl))diacetamide], 112 µM.
In the case of `CN(C)CCOc1ccc2nc(-c3ccc(-c4nc5ccc(OCCN(C)C)cc5[nH]4)cc3)[nH]c2c1` [Compound 57, 2,2′-((2,2′-(1,4-phenylene)bis(1H-benzo[d]imidazole-6,2-diyl))bis(oxy))bis(N,N-dimethylethanamine)], the IC50 was found to be 119 µM.
`N=C(N)Nc1ccc2nc(-c3ccc(-c4nc5ccc(NC(=N)N)cc5[nH]4)cc3)[nH]c2c1` [Compound 3, 1,1′-(2,2′-(1,4-phenylene)bis(1H-benzo[d]imidazole-6,2-diyl))diguanidine] registered a half-inhibitory concentration (IC50) of 27 µM.
Still for that read-out and setting: under `C#CCCCCN(C)CCNC(=O)c1ccc(-c2nc3cc(-c4ccc5[nH]c(-c6ccc(C(=O)NCCN(C)C)cc6)nc5c4)ccc3[nH]2)cc1` [Compound 114, N-(2-(dimethylamino)ethyl)-4-(2′-(4-((2-(hex-5-yn-1-yl(methyl)amino)ethyl)carbamoyl)phenyl)-1H,1′H-[5,5′-bibenzo[d]imidazol]-2-yl)benzamide] stands 9.5 µM; under `COC(=O)c1ccc2nc(-c3ccc(-c4nc5ccc(C(=O)OC)cc5[nH]4)cc3)[nH]c2c1` [Compound 10, dimethyl 2,2′-(1,4-phenylene)bis(1H-benzo[d]imidazole-6-carboxylate)], greater than 200 µM.
The same measure, in the same setting: for `Nc1ccc2nc(-c3ccc(-c4nc5ccc(Nc6ncccn6)cc5[nH]4)cc3)[nH]c2c1` [Compound 5, 2-(4-(5-amino-1H-benzo[d]imidazol-2-yl)phenyl)-N-(pyrimidin-2-yl)-1H-benzo[d]imidazol-5-amine] the value was 76 µM; for `CN(C)CCN(C)C(=O)c1ccc2nc(-c3ccc(-c4nc5ccc(C(=O)N(C)CCN(C)C)cc5[nH]4)cc3)[nH]c2c1` [Compound 68], greater than 200 µM; for `CN(C)CCCNC(=O)c1ccc2nc(-c3ccc(-c4nc5ccc(C(=O)NCCN(C)C)cc5[nH]4)cc3)[nH]c2c1` [Compound 35, N-(2-(dimethylamino)ethyl)-2-(4-(6-((3-(dimethylamino)propyl)carbamoyl)-1H-benzo[d]imidazol-2-yl)phenyl)-1H-benzo[d]imidazole-6-carboxamide], 6.2 µM.

Still in this assay, the particulars now being: Table M; 80 nM RNA, 60 nM MBNL1-His6.
In turn, `CN(C)CCOCCOc1ccc2nc(-c3ccc(-c4nc5ccc(OCCOCCN(C)C)cc5[nH]4)cc3)[nH]c2c1` [Compound 179, 2,2′-((((1,4-phenylenebis(1H-benzo[d]imidazole-2,6-diyl))bis(oxy))bis(ethane-2,1-diyl))bis(oxy))bis(N,N-dimethylethan-1-amine)] showed a half-maximal inhibitory concentration (IC50) of 189 µM.
`CN(C)CCNC(=O)c1ccc(-c2nc3cc(-c4ccc5[nH]c(-c6ccc(C(=O)NCCN(C)CCCCc7cn(CCCNC(=O)CCC(=O)NCCCN=[N+]=[N-])nn7)cc6)nc5c4)ccc3[nH]2)cc1` [Compound 345] displayed an IC50 of 33.5 µM.
For `CN(C)C/C=C\COc1ccc2nc(-c3ccc(-c4nc5ccc(OC/C=C\CN(C)C)cc5[nH]4)cc3)[nH]c2c1` [Compound 244, (2Z,2′Z)-4,4′-((2,2′-(1,4-phenylene)bis(1H-benzo[d]imidazole-6,2-diyl))bis(oxy))bis(N,N-dimethylbut-2-en-1-amine)], the IC50 came to 23.5 µM.
`CN(C)CCCOc1ccc2nc(-c3cc(F)c(-c4nc5ccc(OCCCN(C)C)cc5[nH]4)cc3F)[nH]c2c1` [Compound 296] had an IC50 of 8.4 µM.
In turn, `CN(C)CCNC(=O)c1ccc(-c2nc3cc(-c4ccc5[nH]c(-c6ccc(C(=O)NCCCCCNC(=O)c7ccc(-c8nc9cc(-c%10ccc%11[nH]c(-c%12ccc(C(=O)NCCN(C)C)cc%12)nc%11c%10)ccc9[nH]8)cc7)cc6)nc5c4)ccc3[nH]2)cc1` [Compound 414] gave an IC50 of 8.16 µM.
As for `CN(C)CCNC(=O)c1ccc(-c2nc3cc(-c4ccc5[nH]c(-c6ccc(C(=O)N(C)CCCN(C)C(=O)c7ccc(-c8nc9cc(-c%10ccc%11[nH]c(-c%12ccc(C(=O)NCCN(C)C)cc%12)nc%11c%10)ccc9[nH]8)cc7)cc6)nc5c4)ccc3[nH]2)cc1` [Compound 409], the half-inhibitory concentration (IC50) was determined as 50.6 µM.
The same measure, in the same setting: under `CN(C)CCNC(=O)c1ccc(-c2nc3ccc(-c4ccc5nc(-c6ccc(C(=O)N(C)CCCN(C)CCCN(C)C(=O)c7ccc(-c8nc9ccc(-c%10ccc%11nc(-c%12ccc(C(=O)NCCN(C)C)cc%12)[nH]c%11c%10)cc9[nH]8)cc7)cc6)[nH]c5c4)cc3[nH]2)cc1` [Compound 449] stands 2.5 µM.
For `c1cc2nc(-c3ccc(-c4nc5ccc(OCCN6CCCC6)cc5[nH]4)cc3)[nH]c2cc1OCCN1CCCC1` [Compound 203], half-maximal inhibition (IC50) was put at 103 µM.
`C#CCCCCNC(=O)CCCOc1ccc2[nH]c(-c3ccc(-c4nc5cc(OCCCN(C)C)ccc5[nH]4)cc3)nc2c1` [Compound 323] registered a 50% inhibitory concentration (IC50) of 20.3 µM.
On the same count and under the same terms, for `CN(C)CCCOc1ccc2nc(-c3ccc(-c4nc5ccc(OCCCN(C)C)cc5[nH]4)c([N+](=O)[O-])c3)[nH]c2c1` [Compound 288, 3,3′-(((2-nitro-1,4-phenylene)bis(1H-benzo[d]imidazole-2,6-diyl))bis(oxy))bis(N,N-dimethylpropan-1-amine)] the value was 42.6 µM; for `CC(=O)NCCN(C)CCNC(=O)c1ccc(-c2ccc3[nH]c(-c4ccc(OCCCN(C)C)cc4)nc3c2)cc1` [Compound 396], greater than 200 µM; for `CN(C)CCCOc1ccc2nc(-c3cccc(-c4nc5ccc(OCCCN(C)C)cc5[nH]4)c3)[nH]c2c1` [Compound 253, 3,3′-((1,3-phenylenebis(1H-benzo[d]imidazole-2,6-diyl))bis(oxy))bis(N,N-dimethylpropan-1-amine)], greater than 200 µM.
Take `CN(C)C[C@H]1CC[C@H](COc2ccc3nc(-c4ccc(-c5nc6ccc(OC[C@H]7CC[C@H](CN(C)C)CC7)cc6[nH]5)cc4)[nH]c3c2)CC1` [Compound 218, 1,1′-((1r,1′r,4r,4′r)-(((1,4-phenylenebis(1H-benzo[d]imidazole-2,6-diyl))bis(oxy))bis(methylene))bis(cyclohexane-4,1-diyl))bis(N,N-dimethylmethanamine)]: half-maximal inhibition (IC50) required 68.7 µM.
In the case of `CN(C)CCCCOc1ccc2nc(-c3ccc(-c4nc5ccc(OCCCCN(C)C)cc5[nH]4)cc3)[nH]c2c1` [Compound 197, 4,4′-((1,4-phenylenebis(1H-benzo[d]imidazole-2,6-diyl))bis(oxy))bis(N,N-dimethylbutan-1-amine)], half-maximal inhibition (IC50) was put at 33.6 µM.
Still for that read-out and setting: for `CN(C)CCNC(=O)c1ccc(-c2nc3ccc(-c4ccc5nc(-c6ccc(C(=O)Nc7cccc(-c8cn(CCCNCC(=O)N9CCC[C@H]9C(=O)N9CCC[C@H]9C(=O)N9CCCC9C(=O)N9CCC[C@H]9C(=O)N(CCCn9cc(-c%10cccc(NC(=O)c%11ccc(-c%12nc%13ccc(-c%14ccc%15nc(-c%16ccc(C(=O)NCCN(C)C)cc%16)[nH]c%15c%14)cc%13[nH]%12)cc%11)c%10)nn9)CC(N)=O)nn8)c7)cc6)[nH]c5c4)cc3[nH]2)cc1` (stereo partly shown) [Compound 436] the value was 2.6 µM.
Same read-out and setting: for `C[C@H](C(=O)N(C)[C@H](C)C(=O)N(C)[C@H](C)C(=O)N(C)[C@H](C)C(=O)N(CCCn1cc(COCCOCCOCCOCCNC(=O)c2ccc(-c3nc4ccc(-c5ccc6nc(-c7ccc(C(=O)NCCN(C)C)cc7)[nH]c6c5)cc4[nH]3)cc2)nn1)CC(N)=O)N(C)C(=O)CNCCCn1cc(COCCOCCOCCOCCNC(=O)c2ccc(-c3nc4ccc(-c5ccc6nc(-c7ccc(C(=O)NCCN(C)C)cc7)[nH]c6c5)cc4[nH]3)cc2)nn1` [Compound 431] the value was greater than 200 µM; for `COc1c(-c2nc3ccc(OCCCN(C)C)cc3[nH]2)ccc(-c2nc3ccc(OCCCN(C)C)cc3[nH]2)c1OC` [Compound 303, 3,3′-(((2,3-dimethoxy-1,4-phenylene)bis(1H-benzo[d]imidazole-2,6-diyl))bis(oxy))bis(N,N-dimethylpropan-1-amine)], greater than 200 µM.
Compound `CN(C)CCCOc1ccc2nc(-c3ccc(-c4nc5ccc(O)cc5[nH]4)cc3)[nH]c2c1` [Compound 249] returned an IC50 of 52.6 µM.
On the same count and under the same terms, for `CN(C)CCNC(=O)c1ccc(-c2nc3cc(-c4ccc5[nH]c(-c6ccc(C(=O)NCCCCCCCNC(=O)c7ccc(-c8nc9cc(-c%10ccc%11[nH]c(-c%12ccc(C(=O)NCCN(C)C)cc%12)nc%11c%10)ccc9[nH]8)cc7)cc6)nc5c4)ccc3[nH]2)cc1` [Compound 421] the value was 14.8 µM.

The values above are taken from patent US10961202B2, “Bis-benzimidazole compounds and methods of using the same” (THE SCRIPPS RESEARCH INSTITUTE, priority 2017, dated 2021).
